Reference: patent publication US11498930B2 (BLUERAY THERAPEUTICS (SHANGHAI) CO., LTD., priority 2018, dated 2022)
Like-named read-outs stand apart in the source and are kept apart here.

Legend:
MOLM-13 cells = assay: MOLM-13 cell proliferation experiment; assay type: cell-based; settings: Homo sapiens
Method: After 3 days, 5 µL of CellTiter-Glo reagent (Promega, ZG7572) was added to each well, and the plates were kept at room temperature in the dark for 10 minutes. The […] was detected by Spectra max i3 (Molecular Devices). The relative growth rate of the treated cells was compared with that of DMSO control.

[1] = tested on: phosphorylation level of intracellular protein kinase (ERK) in MOLM13 cells; assay: Phosphorylated protein kinase (p-ERK) cell experiment (AlphaLISA); assay type: cell-based; settings: Homo sapiens, MOLM-13, MOLM13 cells
Method: The inhibitory activities of the compounds on the phosphorylation level of intracellular protein kinase (ERK) were determined by AlphaLISA method.
Firstly, the cells were treated with the compounds. The compounds to be tested were subjected to 3-fold dilution with 100% DMSO, and a total of 9 different concentration gradients were set. MOLM13 cells were then seeded into 96-well plates at a density of 30,000 cells per well in a volume of 100 µL per well. […] of DMSO or the test compounds with different concentrations was then transferred into each well, setting two duplicates for each concentration, and the final concentration of DMSO was controlled at 0.5%.
Secondly, the cells were lysed. After 2 hours of cell treatment, the medium was removed, and the cells were washed 3 times with phosphate buffered saline. 50 µL of freshly prepared lysis buffer was added to each well, and the plates were shaken and kept at room temperature for 10 minutes.
Thirdly, the phosphorylated extracellular signal-regulated kinase (p-ERK) was detected by AlphaLISA@ SureFire® Ultra™ p-ERK 1/2 (Thr202/Tyr204) kit (Perkin Elmer, ALSU-PERK-A10K). 10 µL of the above lysate was transferred to a 384-well plate (Perkin Elmer, 6005350), and the phosphorylation level of the extracellular signal-regulated kinase of the sample was detected according to the product instructions. The signal was read using AlphaScreen detector on Spectra max i3 (Molecular Devices). The percentage of inhibition (%) was calculated by the following formula: Inhibition percentage(%)=(1−p-ERK signal of compound-treated cells/p-ERK signal of DMSO-treated cells)*100

SHP2^E76A protein = SHP2^E76A protein (Homo sapiens (Human), UniProt Q06124, E76A); assay: SHP2 enzyme activity inhibition experiment; assay type: biochemical
Procedure, shortened: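 Compounds tested at 10 concentrations in 3-fold serial dilution. IC50 from a four-parameter Hill-slope nonlinear fit of enzyme activity versus concentration.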

[2] = MOLM-13, 72 h, MOLM-13 cell proliferation, 3 days, Tables 3.1 and 3.2, read-out: IC50
[3] = p-ERK, 2 hours of cell treatment, Tables 2.1 and 2.2, read-out: IC50
[4] = SHP2 enzyme activity, Tables 1.1 and 1.2, read-out: IC50
[5] = MOLM-13, read-out: MOLM-13 cell proliferation IC50
[6] = Table 4, read-out: SHP2 enzyme activity IC50

SHP2^E76A protein, sequence (Q06124 whole entry E76A): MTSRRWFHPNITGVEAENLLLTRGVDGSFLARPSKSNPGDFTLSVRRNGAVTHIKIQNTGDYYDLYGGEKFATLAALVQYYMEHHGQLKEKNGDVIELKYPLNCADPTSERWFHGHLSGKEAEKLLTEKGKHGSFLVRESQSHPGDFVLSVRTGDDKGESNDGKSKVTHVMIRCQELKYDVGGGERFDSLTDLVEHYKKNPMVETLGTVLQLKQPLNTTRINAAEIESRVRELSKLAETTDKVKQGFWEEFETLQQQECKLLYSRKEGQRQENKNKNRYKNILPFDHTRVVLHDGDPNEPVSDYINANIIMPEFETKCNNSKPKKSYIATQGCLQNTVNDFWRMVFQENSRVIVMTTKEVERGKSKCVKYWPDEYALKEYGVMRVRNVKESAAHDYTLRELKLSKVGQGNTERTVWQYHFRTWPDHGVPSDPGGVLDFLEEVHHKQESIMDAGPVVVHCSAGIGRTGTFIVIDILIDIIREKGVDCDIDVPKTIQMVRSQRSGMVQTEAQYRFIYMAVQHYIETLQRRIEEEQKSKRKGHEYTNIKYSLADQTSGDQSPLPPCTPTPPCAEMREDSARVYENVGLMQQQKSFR

Row | Compound | IC50 (MOLM-13 cells; [2]) | IC50 [1, 3] | IC50 (SHP2^E76A protein; [4]) | IC50 (MOLM-13 cells; [5]) | IC50 ([1]; Table 4, read-out: p-ERK IC50) | IC50 (SHP2^E76A protein; [6])
1 | Nc1nccc(Sc2cnc(N3CCC4(CCC[C@H]4N)CC3)n3ncnc23)c1Cl [(R)-8-(8-((2-amino-3-chloropyridin-4-yl)thio)-[1,2,4]triazolo[1,5-c]pyrimidin-5-yl)-8-azaspiro[4.5]decan-1-amine] | 100 to 1000 nM | 1000 to 10000 nM | 100 to 1000 nM | – | – | –
2 | CC1C[C@@H](N)C2(CCN(c3ncc(Sc4cc(N)nc(Cl)c4Cl)c4nncn34)CC2)C1 (stereo partly drawn) [(1R)-8-(8-((6-amino-2,3-dichloropyridin-4-yl)thio)-[1,2,4]triazolo[4,3-c]pyrimidin-5-yl)-3-methyl-8-azaspiro[4.5]decan-1-amine] | < 100 nM | < 100 nM | < 100 nM | 17 nM | 47 nM | 2 nM
3 | N[C@@H]1CCC12CCN(c1ncc(Sc3cccc(Cl)c3Cl)c3nccn13)CC2 [(R)-7-(8-((2,3-dichlorophenyl)thio)imidazo[1,2-c]pyrimidin-5-yl)-7-azaspiro[3.5]nonan-1-amine] | 100 to 1000 nM | 100 to 1000 nM | 100 to 1000 nM | – | – | –
4 | N[C@@H]1COCC12CCN(c1ncc(Sc3cccc(Cl)c3Cl)c3ncnn13)CC2 [(S)-8-(8-((2,3-dichlorophenyl)thio)-[1,2,4]triazolo[1,5-c]pyrimidin-5-yl)-2-oxa-8-azaspiro[4.5]decan-4-amine] | 100 to 1000 nM | 1000 to 10000 nM | 100 to 1000 nM | – | – | –
5 | Cc1nc(N)cc(Sc2cnc(N3CCC4(CC3)CC(F)(F)C[C@H]4N)n3ccnc23)c1Cl [(R)-8-(8-((6-amino-3-chloro-2-methyl-pyridin-4-yl)thio)imidazo[1,2-c]pyrimidin-5-yl)-3,3-difluoro-8-azaspiro[4.5]decan-1-amine] | – | < 100 nM | < 100 nM | 150 nM | 97 nM | 26 nM
6 | CC1(N)CCN(c2ncc(Sc3ccnc(N)c3Cl)c3nncn23)CC1 [4-((5-(4-amino-4-methylpiperidin-1-yl)-[1,2,4]triazolo[4,3-c]pyrimidin-8-yl)thio)-3-chloropyridin-2-amine] | 1000 to 10000 nM | 1000 to 10000 nM | 100 to 1000 nM | – | – | –
7 | CC1CCC2(CCN(c3ncc(Sc4cccc(Cl)c4Cl)c4nccn34)CC2)[C@@H]1N (stereo partly drawn) [(1R)-8-(8-((2,3-dichlorophenyl)thio)imidazo[1,2-c]pyrimidin-5-yl)-2-methyl-8-azaspiro[4.5]decan-1-amine] | 100 to 1000 nM | 100 to 1000 nM | < 100 nM | – | – | –
8 | Nc1cc(Sc2cnc(N3CCC4(CC3)CC(F)(F)C[C@H]4N)n3ccnc23)c(Cl)c(Cl)n1 [(R)-8-(8-((6-amino-2,3-dichloropyridin-4-yl)thio)imidazo[1,2-c]pyrimidin-5-yl)-3,3-difluoro-8-azaspiro[4.5]decan-1-amine] | 100 to 1000 nM | < 100 nM | < 100 nM | 150 nM | 62 nM | 35 nM
9 | Cn1ccc2c(Sc3cnc(N4CCC5(CCC[C@H]5N)CC4)n4ccnc34)ccnc21 [(R)-8-(8-((1-methyl-1H-pyrrolo[2,3-b]pyridin-4-yl)thio)imidazo[1,2-c]pyrimidin-5-yl)-8-azaspiro[4.5]decan-1-amine] | 100 to 1000 nM | 100 to 1000 nM | < 100 nM | – | – | –
10 | N[C@@H]1CCCC12CCN(c1ncc(Sc3ccncc3C(F)(F)F)c3nccn13)CC2 [(R)-8-(8-((3-(trifluoromethyl)pyridin-4-yl)thio)imidazo[1,2-c]pyrimidin-5-yl)-8-azaspiro[4.5]decan-1-amine] | 100 to 1000 nM | 100 to 1000 nM | < 100 nM | – | – | –
11 | N[C@@H]1CCCC12CCN(c1ncc(Sc3cccc(Cl)c3Cl)c3nccn13)CC2 [(R)-8-(8-((2,3-dichlorophenyl)thio)imidazo[1,2-c]pyrimidin-5-yl)-8-azaspiro[4.5]decan-1-amine] | 100 to 1000 nM | 100 to 1000 nM | < 100 nM | – | – | –
12 | N[C@@H]1COCC12CCN(c1ncc(Sc3ccnc(Cl)c3Cl)c3nccn13)CC2 [(S)-8-(8-((2,3-dichloropyridin-4-yl)thio)imidazo[1,2-c]pyrimidin-5-yl)-2-oxa-8-azaspiro[4.5]decan-4-amine] | 100 to 1000 nM | 100 to 1000 nM | < 100 nM | – | – | –
